Test results reported in patent US20260014210A1, “SYMBIOTIC BACTERIUM IN HUMANS FOR PROMOTING HAIR GROWTH AND USE THEREOF” (priority 2022, published 2026).

Tests used:
ShC4 strain = test: ShC4 antibiotic sensitivity test (antibiotic sensitivity tablets); assay type: cell-based, Staphylococcus hominis; details: for Mean diameter (mm) of inhibitory ring: antibiotic content per tablet, 36±1° C., 24 hours, three replicates; for sensitivity of ShC4 strain to the antibiotic (in words): summary of Table 1
[1] = tested on: Dunkin Hartley guinea pigs; details: 200 μL applied on D0, D7, D14, provocation D28; ShC4 2E10 CFU; scored to 72 hours after stimulation
[2] = standard for penicillin and ampicillin
[3] = standard for oxacillin and piperacillin
[4] = standard for tetracycline and minocycline

Compound	Mean diameter (mm) of inhibitory ring (ShC4 strain) [mm]	sensitivity of ShC4 strain to the antibiotic (in words) (ShC4 strain)	further results
Penicillin [Penicillin (P)]	15.72	resistance	Sensitivity (ShC4 strain; [2]): R (≤28)
Cc1onc(-c2ccccc2)c1C(=O)N[C@@H]1C(=O)N2[C@@H]1SC(C)(C)[C@@H]2C(=O)O [Oxacillin (OX), Oxacillin]	29.4	sensitive	Sensitivity (ShC4 strain; [3]): S (≥18)
CC1(C)S[C@@H]2[C@H](NC(=O)[C@H](N)c3ccccc3)C(=O)N2[C@H]1C(=O)O [ampicillin]	16.69	resistance	Sensitivity (ShC4 strain; [2]): R (≤28)
cotrimoxazole	0	resistance	
CN(C)c1ccc(O)c2c1C[C@H]1C[C@H]3[C@H](N(C)C)C(O)=C(C(N)=O)C(=O)[C@@]3(O)C(O)=C1C2=O [minocycline]	29.33		Sensitivity (ShC4 strain; [4]): S (≥19)
CC[C@H]1OC(=O)[C@H](C)[C@@H](O[C@H]2C[C@@](C)(OC)[C@@H](O)[C@H](C)O2)[C@H](C)[C@@H](O[C@@H]2O[C@H](C)C[C@H](N(C)C)[C@H]2O)[C@](C)(O)C[C@@H](C)C(=O)[C@H](C)[C@@H](O)[C@]1(C)O [erythromycin]	23.96	sensitive	Sensitivity (ShC4 strain; standard for erythromycin): S (≥23)
CN(C)[C@@H]1C(O)=C(C(N)=O)C(=O)[C@@]2(O)C(O)=C3C(=O)c4c(O)cccc4[C@@](C)(O)[C@H]3C[C@@H]12 [tetracycline]	25.85		Sensitivity (ShC4 strain; [4]): S (≥19)
2,4-dinitrochlorobenzene [CDNB]			allergy rate [1]: 100%
CCN1CCN(C(=O)N[C@@H](C(=O)N[C@@H]2C(=O)N3[C@@H]2SC(C)(C)[C@@H]3C(=O)O)c2ccccc2)C(=O)C1=O [Piperacillin]	18.86	sensitive	Sensitivity (ShC4 strain; [3]): S (≥18)
